Source: patent publication US11673871B2, “Certain (2S)-N-[(1S)-1-cyano-2-phenylethyl]-1,4-oxazepane-2-carboxamides as dipeptidyl peptidase 1 inhibitors” (AstraZeneca AB, priority 2014, dated 2023)

Assay: Test B: In-vitro competitive aortic tissue binding assay
Conditions: 100 μM compound pre-incubated overnight at 37° C. with rat aortic homogenate, competition with 100 μM [14C] WO2010/128324 Ex. 3
Experimental: To assist the design of DPP1 inhibitors with a decreased risk of binding to elastin rich tissues, such as the aorta, the in-vitro competitive aortic binding assay disclosed below (Test B) was developed to facilitate the selection process.
Test B: In-vitro competitive aortic tissue binding assay Aortic homogenate was prepared from the thoracic aortae of Han Wistar rats. Freshly isolated thoracic aortae were frozen, and later thawed and stripped of non-elastic material. […] Homogenate concentration was adjusted to 30 mg/mL in Puck's saline, and aliquots were stored at −80° C. until use. Positive and negative control compounds and test compounds were made up to 100 mM in DMSO, and added to 1 mL aliquots of aortic homogenate in Puck's saline for a final concentration of 100 μM. Homogenate samples were pre-incubated with test compounds at 37° C., rotating, overnight. [^14C]4-Amino-N-[(1S)-1-cyano-2-(4′-cyanobiphenyl-4-yl)ethyl]tetrahydro-2H-pyran-4-carboxamide was then added to all samples to a final concentration of 100 μM, and samples were incubated at 37° C., rotating, for a further 2 h. Protein was precipitated from each sample by the addition of 10 mL acetone, pre-chilled to −20° C. Samples were left overnight at −20° C. to allow complete precipitation. Precipitate was pelleted by centrifugation at 4,500×g at 4° C. for 20 min, an aliquot of supernatant was removed for analysis, and the remainder of the supernatant discarded. Precipitate was washed by resuspension in 10 mL 80% methanol in distilled water, and re-pelleted by centrifugation at 4,500×g at 4° C. for 20 min. […] After final wash, precipitate was air-dried, and dissolved overnight in 1 mL NCSII Tissue Solubiliser. 1 mL aliquots of supernatants were added to 5 mL Ultima Gold scintillation fluid (Perkin Elmer, MA, U.S.A.), and 1 mL solubilised pellets were added to 5 mL Hionic-Fluor scintillation fluid (Perkin Elmer, MA, U.S.A.). Radioactivity of samples was determined on a Beckman LS6500 multipurpose scintillation counter (Beckman Coulter, IN, U.S.A.). […] Duplicate samples were tested for each compound on each experimental occasion, and at least two experiments were run for each test compound. […] 1-way ANOVA and Bonferroni's multiple comparison tests were performed to calculate significance of differences from vehicle control.

Row | Compound | Aortic Tissue Binding
1 | Cn1c(=O)oc2ccc(-c3ccc(C[C@@H](C#N)NC(=O)[C@@H]4CNCCCO4)cc3)cc21 [Example 2, (2S)-N-{(1S)-1-Cyano-2-[4-(3-methyl-2-oxo-2,3-dihydro-1,3-benzoxazol-5-yl)phenyl]ethyl}-1,4-oxazepane-2-carboxamide] | No binder
2 | N#Cc1ccc(-c2ccc(C[C@@H](C#N)NC(=O)[C@@H]3CCCCN3)cc2)cc1 [WO2009/074829 (Example 24)] | Binder
3 | Cn1c(=O)oc2ccc(-c3ccc(C[C@@H](C#N)NC(=O)[C@@H]4CCCCN4)cc3)cc21 [WO2009/074829 (Example 96)] | Medium binder

Second part, the compound after the results:

Row | Aortic Tissue Binding | Compound
4 | Strong binder (reference) | N#Cc1ccc(-c2ccc(C[C@@H](C#N)NC(=O)C3(N)CCOCC3)cc2)cc1 [WO2010/128324 (Ex. 3), 4-amino-N-[(1S)-1-cyano-2-(4′-cyanobiphenyl-4-yl)ethyl]tetrahydro-2H-pyran-4-carboxamide]
5 | Strong binder | Cn1c(=O)oc2ccc(-c3ccc(C[C@@H](C#N)NC(=O)C4(N)CCOCC4)cc3)cc21 [WO2010/128324 (Example 17)]
